Reference: PubChem BioAssay (NCI)
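96-well plates; 48 h exposure; 5 concentrations. Endpoints by linear interpolation between flanking doses. Not reached: highest tested concentration assigned. GI50 is the concentration that inhibits growth by half. TGI is the concentration that stops growth completely.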

Legend:
Assay in all cases: NCI anticancer screen, dose series, 48 h
[1] = system: COLO 205 colon
[2] = system: HT29 colon
[3] = system: 786-0 renal
[4] = system: SNB-75 CNS
[5] = system: SK-MEL-28 melanoma
[6] = system: SR leukemia
[7] = system: NCI-H226 lung
[8] = system: RXF 393 renal
[9] = system: A549 NSCLC
[10] = system: ACHN renal

SMILES | GI50 [1] | TGI [1] | GI50 [2] | TGI [2] | GI50 [3] | TGI [3] | GI50 [4] | TGI [4] | GI50 [5] | TGI [5] | GI50 [6] | TGI [6] | GI50 [7] | TGI [7] | GI50 [8] | TGI [8] | GI50 [9] | TGI [9] | GI50 [10] | TGI [10]
O=C1C(=O)c2c(nc3ccc(C(F)(F)F)cn23)-c2ccccc21 | 1.63 µM | 3.52 µM | 0.923 µM | 3.61 µM | 0.396 µM | 0.835 µM | 0.202 µM | 0.465 µM | 0.221 µM | 0.431 µM | 0.225 µM | > 100 µM | 0.72 µM | 1.77 µM | 0.254 µM | 0.616 µM | 0.513 µM | 1.23 µM | 0.185 µM | 0.381 µM
COC(=O)C1CC(c2ccc(OC)c(OC)c2)OC1=O (mixture of isomers) |  | > 100 µM |  | > 100 µM |  | > 100 µM |  | > 100 µM |  | > 100 µM |  | > 100 µM |  | > 100 µM |  | > 100 µM |  | > 100 µM |  | > 100 µM
COC(=O)C(C(=O)C(=O)Nc1c(C)cccc1C(C)(C)C)c1nc2ccc(Cl)cc2[nH]c1=O (configuration not stated) |  |  |  | > 100 µM |  | > 100 µM |  | > 100 µM |  | > 100 µM |  | > 100 µM |  | > 100 µM |  | > 100 µM |  | > 100 µM |  | > 100 µM
COc1cc(N2C(=O)[C@H](Cl)C2c2ccc(SC)cc2)cc(OC)c1OC (some centres not stated) | 0.0677 µM | 11.4 µM | 0.0438 µM | > 100 µM | 0.0456 µM | 1.83 µM | 0.0236 µM | > 100 µM |  |  | 0.0473 µM | > 100 µM | 0.37 µM | > 100 µM | 0.0385 µM | > 100 µM | 0.463 µM | > 100 µM | 0.061 µM | 71.3 µM
COC1(OC)C2(Cl)C3=CCCC=C3C1(Cl)C(Cl)=C2Cl |  | 37.7 µM |  | 84.3 µM |  | > 100 µM |  | > 100 µM |  | > 100 µM |  | 53.5 µM |  | 82.4 µM |  | 47.8 µM |  | > 100 µM |  | > 100 µM
COc1cc(/C=N/NC(=O)c2cnn3c2NC(c2ccccc2)C3)ccc1OC1CCCC1 (configuration not stated) | 0.59 µM | 7.53 µM | 0.467 µM | 8.55 µM | 0.639 µM | 3.73 µM | 0.207 µM | 0.778 µM | 1.25 µM | 9.15 µM | 0.252 µM | 3.78 µM | 1.64 µM | 6.12 µM | 0.357 µM | 1.47 µM | 0.731 µM | 3.86 µM | 0.666 µM | 6.04 µM
COc1ccc(-n2c(=S)sc3c(Cl)nc(C)nc32)c(OC)c1 | 3.83 µM | 13.3 µM | 2.41 µM | 6.28 µM | 4.42 µM | 20.4 µM | 1.97 µM | 4.26 µM | 2.18 µM | 4.6 µM | 1.42 µM | 5.52 µM | 3.22 µM | 12 µM | 2 µM | 4.07 µM | 4.45 µM | 15.8 µM | 2.08 µM | 3.97 µM
